≈ marks a conversion by molar mass, not a printed value. Calls of active or inactive are those of the source. No cut-off for these calls is given here.
Assays:
Pseudomonas aeruginosa [1] = assay: Antibacterial activity against Pseudomonas aeruginosa PAE 1051 incubated for 18 hrs by broth microdilution method; type: functional
Klebsiella pneumoniae [2] = assay: Synergistic antibacterial activity against Klebsiella pneumoniae KPN 943 assessed as fold change in polymyxin-E MIC incubated for 18 hrs by broth microdilution method relative to polymyxin-E alone; type: functional
Bacillus subtilis [3] = assay: Antibacterial activity against Bacillus subtilis 168 assessed as inhibition of bacterial growth incubated for 18 hrs by broth microdilution method; type: functional
Acinetobacter baumannii [4] = assay: Synergistic antibacterial activity against Acinetobacter baumannii Ab 1611 assessed as fold change in polymyxin-E MIC incubated for 18 hrs by broth microdilution method relative to polymyxin-E alone; type: functional
Listeria monocytogenes = assay: Antibacterial activity against Listeria monocytogenes assessed as inhibition of bacterial growth incubated for 18 hrs by broth microdilution method; type: functional
Acinetobacter baumannii [5] = assay: Synergistic antibacterial activity against Acinetobacter baumannii Ab 1611 assessed as polymyxin-E MIC at 4 microg/ml incubated for 18 hrs by broth microdilution method; type: functional; settings: dose 4 µg/ml
Acinetobacter baumannii [6] = assay: Synergistic antibacterial activity against Acinetobacter baumannii ATCC 19606 infected in female Balb/c mouse model assessed as survival rate of mouse at 64 mg/kg, iv administered every 12 hrs in presence of polymyxin-E and measured for 7 days; type: functional
Acinetobacter baumannii [7] = assay: Synergistic antibacterial activity against Acinetobacter baumannii Ab 1611 assessed as fractional inhibitory concentration index at 4 microg/ml incubated for 18 to 20 hrs by chequerboard assay; type: functional; settings: dose 4 µg/ml; time 18-20 hrs
Staphylococcus aureus [8] = assay: Antibacterial activity against Staphylococcus aureus S1-1-38 assessed as inhibition of bacterial growth incubated for 18 hrs by broth microdilution method; type: functional
Bacillus subtilis [9] = assay: Antibacterial activity against Bacillus subtilis CMCC(B) 63501 assessed as inhibition of bacterial growth incubated for 18 hrs by broth microdilution method; type: functional
Pseudomonas aeruginosa [10] = assay: Synergistic antibacterial activity against Pseudomonas aeruginosa PAE 3887 assessed as polymyxin-E MIC at 4 microg/ml incubated for 18 hrs by broth microdilution method; type: functional; settings: dose 4 µg/ml
Acinetobacter baumannii [11] = assay: Antibacterial activity against Acinetobacter baumannii ATCC 19606 assessed as inhibition of bacterial growth at 4 microg/ml incubated for overnight in presence of 0.25 microg/ml polymyxin-E by time-kill assay; type: functional, organism-based; settings: dose 4.0 µg/ml
Enterococcus faecalis [12] = assay: Antibacterial activity against Enterococcus faecalis ATCC 51299 assessed as inhibition of bacterial growth incubated for 18 hrs by broth microdilution method; type: functional
Staphylococcus aureus [13] = assay: Antibacterial activity against methicillin-resistant Staphylococcus aureus ATCC 43300 assessed as inhibition of bacterial growth at 2 microg/ml measured after 24 hrs by time-kill assay; type: functional; parameters: scale not given: the % may be the effect or the level left; settings: dose 2 µg/ml
Pseudomonas aeruginosa [14] = assay: Synergistic antibacterial activity against Pseudomonas aeruginosa PAE 3887 assessed as fold change in polymyxin-E MIC incubated for 18 hrs by broth microdilution method relative to polymyxin-E alone; type: functional
Klebsiella pneumoniae [15] = assay: Synergistic antibacterial activity against Klebsiella pneumoniae KPN 1617 assessed as polymyxin-E MIC at 4 microg/ml incubated for 18 hrs by broth microdilution method; type: functional; settings: dose 4 µg/ml
[16] = test system: Lactiplantibacillus plantarum; assay: Antibacterial activity against Lactobacillus plantarum assessed as inhibition of bacterial growth incubated for 18 hrs by broth microdilution method; type: functional
Pseudomonas aeruginosa [17] = assay: Synergistic antibacterial activity against Pseudomonas aeruginosa PAE 1051 assessed as fractional inhibitory concentration index at 4 microg/ml incubated for 18 to 20 hrs by chequerboard assay; type: functional; settings: dose 4 µg/ml; time 18-20 hrs
Klebsiella pneumoniae [18] = assay: Synergistic antibacterial activity against Klebsiella pneumoniae KPN 1617 assessed as fold change in polymyxin-E MIC incubated for 18 hrs by broth microdilution method relative to polymyxin-E alone; type: functional
Staphylococcus aureus [19] = assay: Antimicrobial activity against methicillin/ofloxacin-resistant Staphylococcus aureus ATCC 43300 assessed as minimum inhibitory concentration incubated for 18 hrs by broth microdilution method; type: functional
Acinetobacter baumannii [20] = assay: Synergistic antibacterial activity against Acinetobacter baumannii Ab 1613 assessed as fold change in polymyxin-E MIC incubated for 18 hrs by broth microdilution method relative to polymyxin-E alone; type: functional
Klebsiella pneumoniae [21] = assay: Synergistic antibacterial activity against Klebsiella pneumoniae KPN 943 assessed as polymyxin-E MIC at 4 microg/ml incubated for 18 hrs by broth microdilution method; type: functional; settings: dose 4 µg/ml
Klebsiella pneumoniae [22] = assay: Antibacterial activity against Klebsiella pneumoniae KPN 1617 incubated for 18 hrs by broth microdilution method; type: functional
Klebsiella pneumoniae [23] = assay: Synergistic antibacterial activity against Klebsiella pneumoniae SIPI-KPN-1712 assessed as fold change in polymyxin-E MIC incubated for 18 hrs by broth microdilution method relative to polymyxin-E alone; type: functional
Staphylococcus aureus [24] = assay: Antibacterial activity against Staphylococcus aureus S1-1-7 assessed as inhibition of bacterial growth incubated for 18 hrs by broth microdilution method; type: functional
[25] = test system: Mycolicibacterium smegmatis; assay: Antibacterial activity against Mycobacterium smegmatis MC 2155 assessed as inhibition of bacterial growth incubated for 18 hrs by broth microdilution method; type: functional
Cell membrane = assay: Disruption of cell membrane integrity in Acinetobacter baumannii ATCC 19606 assessed as outer membrane expansion at 4 microg/ml incubated for 1 hrs by TEM analysis; type: subcellular; settings: dose 4.0 µg/ml
[26] = test system: Mycolicibacterium smegmatis; assay: Antibacterial activity against Mycobacterium smegmatis ARC 700044 assessed as inhibition of bacterial growth incubated for 18 hrs by broth microdilution method; type: functional
Pseudomonas aeruginosa [27] = assay: Antibacterial activity against Pseudomonas aeruginosa ATCC 13883 incubated for 18 hrs by broth microdilution method; type: functional
Staphylococcus aureus [28] = assay: Antibacterial activity against Staphylococcus aureus S1-1-65 assessed as inhibition of bacterial growth incubated for 18 hrs by broth microdilution method; type: functional
Enterococcus faecalis [29] = assay: Antibacterial activity against Enterococcus faecalis ATCC 29212 assessed as inhibition of bacterial growth incubated for 18 hrs by broth microdilution method; type: functional
Bacillus subtilis [30] = assay: Antibacterial activity against Bacillus subtilis ATCC 6633 assessed as inhibition of bacterial growth incubated for 18 hrs by broth microdilution method; type: functional
Acinetobacter baumannii [31] = assay: Antibacterial activity against Acinetobacter baumannii Ab 1611 incubated for 18 hrs by broth microdilution method; type: functional
Staphylococcus aureus [32] = assay: Antibacterial activity against Staphylococcus aureus NCTC 8325 assessed as inhibition of bacterial growth incubated for 18 hrs by broth microdilution method; type: functional
Pseudomonas aeruginosa [33] = assay: Synergistic antibacterial activity against Pseudomonas aeruginosa […] assessed as polymyxin-E MIC at 4 microg/ml incubated for 18 hrs by broth microdilution method; type: functional; settings: dose 4 µg/ml
Acinetobacter baumannii [34] = assay: Antimicrobial activity against Acinetobacter baumannii ATCC 19606 incubated for 18 hrs by broth microdilution method; type: functional
Enterococcus faecalis [35] = assay: Antimicrobial activity against vancomycin-resistant Enterococcus faecalis ATCC 51299 assessed as minimum inhibitory concentration incubated for 18 hrs by broth microdilution method; type: functional
Bacillus subtilis [36] = assay: Antimicrobial activity against Bacillus subtilis ATCC 20678 incubated for 18 hrs by broth microdilution method; type: functional
Acinetobacter baumannii [37] = assay: Synergistic antibacterial activity against Acinetobacter baumannii Ab 1613 assessed as fractional inhibitory concentration index at 4 microg/ml incubated for 18 to 20 hrs by chequerboard assay; type: functional; settings: dose 4 µg/ml; time 18-20 hrs

In the case of `C/C(=N\Nc1ccccn1)c1csc(Nc2cc(F)cc(C(F)(F)F)c2)n1`, the MIC (Pseudomonas aeruginosa [1]) is reported as over 128 µg/mL, the “fold change (FC)” value (Klebsiella pneumoniae [2]) is reported as 32 and the MIC (Bacillus subtilis [3]) is reported as 1 µg/mL (≈ 2.53 µM). The “fold change (FC)” value (Acinetobacter baumannii [4]) was 16, the MIC (Listeria monocytogenes) was 4 µg/mL (≈ 10.1 µM) and the MIC (Acinetobacter baumannii [5]) was 0.063 µg/mL. For the same compound, the survival at 64 mg/kg (Acinetobacter baumannii [6]) was 100%, the “fractional inhibitory concentration index (FICI)” value (Acinetobacter baumannii [7]) was 0.094 and the MIC (Staphylococcus aureus [8]) was 0.5 µg/mL (≈ 1.26 µM). For the same compound, the MIC (Bacillus subtilis [9]) was 0.5 µg/mL (≈ 1.26 µM), the MIC (Pseudomonas aeruginosa [10]) was 0.125 µg/mL and the Activity (Acinetobacter baumannii [11]) was “Active”. For the same compound, the MIC (Enterococcus faecalis [12]) was 2 µg/mL (≈ 5.06 µM), the Activity (Staphylococcus aureus [13]) was 100% and the “fold change (FC)” value (Pseudomonas aeruginosa [14]) was 16. The MIC (Klebsiella pneumoniae [15]) was 0.5 µg/mL, the MIC [16] was 1 µg/mL (≈ 2.53 µM) and the “fractional inhibitory concentration index (FICI)” value (Pseudomonas aeruginosa [17]) was 0.281. The “fold change (FC)” value (Klebsiella pneumoniae [18]) was 16, the MIC (Staphylococcus aureus [19]) was 1 µg/mL (≈ 2.53 µM) and the “fold change (FC)” value (Acinetobacter baumannii [20]) was 4. For the same compound, the MIC (Klebsiella pneumoniae [21]) was 0.125 µg/mL, the MIC (Klebsiella pneumoniae [22]) was over 128 µg/mL and the “fold change (FC)” value (Klebsiella pneumoniae [23]) was 16. For the same compound, the MIC (Staphylococcus aureus [24]) was 2 µg/mL (≈ 5.06 µM), the MIC [25] was 1 µg/mL (≈ 2.53 µM) and the Activity (Cell membrane) was “Active”. For the same compound, the MIC [26] was 2 µg/mL (≈ 5.06 µM), the MIC (Pseudomonas aeruginosa [27]) was over 128 µg/mL and the MIC (Staphylococcus aureus [28]) was 4 µg/mL (≈ 10.1 µM). The MIC (Enterococcus faecalis [29]) was 2 µg/mL (≈ 5.06 µM), the MIC (Bacillus subtilis [30]) was 2 µg/mL (≈ 5.06 µM) and the MIC (Acinetobacter baumannii [31]) was over 128 µg/mL. It also gave an MIC (Staphylococcus aureus [32]) of 0.5 µg/mL (≈ 1.26 µM), an MIC (Pseudomonas aeruginosa [33]) of 1 µg/mL and an MIC (Acinetobacter baumannii [34]) of 128 µg/mL (≈ 324 µM). For the same compound, the MIC (Enterococcus faecalis [35]) was 1 µg/mL (≈ 2.53 µM), the MIC (Bacillus subtilis [36]) was 1 µg/mL (≈ 2.53 µM) and the “fractional inhibitory concentration index (FICI)” value (Acinetobacter baumannii [37]) was 0.281.
